Test results reported in paper PMC11007962, “First-in-human study of GFH018, a small molecule inhibitor of transforming growth factor-β receptor I inhibitor, in patients with advanced solid tumors” (BMC Cancer, 2024).
Entries after “also recorded” stand apart in the source; their conditions may differ. Like-named read-outs stand apart in the source and are kept apart here.

Tested on: patients with advanced solid tumors
[1] = 85 mg BID 14d-on/14d-off (N = 12)
[2] = all 50 patients, none related to GFH018

Experimental: The study consisted of a dose-escalation part followed by an expansion part. In the dose escalation part, a 3-day pharmacokinetic (PK) lead-in period was conducted for a single dose in the first treatment cycle. Patients received GFH018 once on cycle 1 day 1 (C1D1) and underwent serial PK testing over the first 3 days. On C1D4, patients were administered the corresponding dose of GFH018 BID 14 days on/14 days off. The first cycle was defined as 31 days, including 3-day PK leading-in period with GFH018 single dosing and then 14d-on/14d-off dosing schedule. The subsequent cycles were 28 days. The starting dose of GFH018 was 5 mg, with eight planned dose levels up to 85 mg (5, 10, 20, 30, 40, 50, 65, and 85 mg). A modified 3+3 design was used to determine the maximum tolerance dose (MTD) and RDE, guided by safety/tolerability and PK data. Dose-limiting toxicities (DLTs) were evaluated during the first cycle at each dose level. The safety of 85 mg BID, 7 d-on/7 d-off, was explored after confirming the safety of 14 d-on/14 d-off. The DLTs were defined as hematological toxicities, including G4 neutropenia lasting for more than 5 days, G3 febrile neutropenia, G4 anemia, G4 thrombocytopenia, or G3 thrombocytopenia accompanied by bleeding, and ≥ G3 nonhematological toxicity (except for diarrhea, nausea, vomiting, and rash recovering ≤ G2 after supportive treatment within 3 days). The DLTs for cardiac toxicities included ≥ G2 cardiac valve abnormalities, ≥ G2 left ventricular ejection fraction (LVEF) decrease, any cardiovascular impairment shown in imaging, and abnormal highly sensitive troponin (hs-Tn) increased to ≥ twice the baseline in two consecutive tests with an interval ≥ 3 days. In the expansion part, patients were orally administered GFH018 RDE twice daily to further evaluate the safety of RDE and other dose regimens. […] The treatment cycle lasted 28 days.
All enrolled patients were monitored regularly after GFH018 administration. Safety assessments included adverse events (AEs), serious AEs (SAEs), laboratory assessments, vital signs, physical examinations, electrocardiography and echocardiography. AEs were graded according to the NCI Common Terminology Criteria for Adverse Events (NCI-CTCAE) v5.0. All AEs were followed up until they were stable or had recovered to baseline. Adverse events of special interest (AESIs) were predefined as echocardiographic abnormalities such as aggravated stenosis or regurgitation of the heart valves, clinically significant decreases in LVEF, brain natriuretic peptide (BNP) or N-terminal pro-brain natriuretic peptide (NT-proBNP) increases, and hs-Tn increases judged by investigators.
For the safety and efficacy analyses, data from patients who received GFH018 at the same dose in the dose-escalation and expansion cohorts were pooled. The demographic and baseline characteristics were summarized using descriptive methods. Safety and efficacy data were summarized for all patients who received at least one dose of GFH018. The ORR and DCR were summarized by cohort and overall. When the sample size of the analyzed group was ten or more, the Kaplan–Meier method was used to estimate the median PFS and TTP. In this study, treatment-emergent AEs (TEAEs) were defined as AEs that occurred on or after the first dosing date of GFH018 and no later than 30 days after the last dose of GFH018. The incidence and severity of AEs were descriptively summarized according to dose level. The PK parameters of GFH018 were calculated using noncompartmental analysis methods. All plasma PK data were summarized by cohort and visit day or time using descriptive statistics.

Cc1cccc(-c2nn3c(c2-c2ccc4ncnn4c2/C=C/C(N)=O)CCC3)n1 [GFH018]
TEAE: White blood cell count decreased [1]: 2 (16.7%) n (%) | TEAE: White blood cells urine positive [1]: 3 (25.0%) n (%) | TEAE: White blood cells urine positive, any grade (Table S3) [1]: 3 (25.0%) n (%) | TEAE: White blood cells urine positive, maximal CTCAE grade G1 [1]: 3 (25.0%) n (%) | TEAE: White blood cells urine positive, maximal CTCAE grade G2 [1]: 0 n (%) | TEAE: White blood cells urine positive, maximal CTCAE grade G3 [1]: 0 n (%) | TEAE: White blood cells urine positive, maximal CTCAE grade G4 [1]: 0 n (%) | TEAE: White blood cells urine positive, maximal CTCAE grade G5 [1]: 0 n (%) | TRAE: ALP increased [1]: 1 (8.3%) n (%) | TRAE: ALT increased [1]: 2 (16.7%) n (%) | TRAE: AST increased [1]: 4 (33.3%) n (%) | TRAE: Anemia [1]: 3 (25.0%) n (%) | TRAE: GGT increased [1]: 2 (16.7%) n (%) | TRAE: LDH increased [1]: 2 (16.7%) n (%) | TRAE: Lymphocyte count decreased [1]: 2 (16.7%) n (%) | TRAE: Protein urine present [1]: 1 (8.3%) n (%) | TRAE: Proteinuria [1]: 1 (8.3%) n (%) | Treatment-emergent Proteinuria (grouped PTs), G1 [1]: 1 (8.3) n (%) | Treatment-emergent Proteinuria (grouped PTs), G2 [1]: 1 (8.3) n (%) | Treatment-emergent Proteinuria (grouped PTs), G3 [1]: 1 (8.3) n (%) | Treatment-emergent Proteinuria (grouped PTs: proteinuria and urine protein present), any grade [1]: 3 (25.0) n (%) | correlation between incidences of TRAEs and dosages (5–85 mg BID): no obvious correlation | dose-limiting toxicities (DLTs) (5–85 mg BID, evaluated during the first cycle): No dose-limiting toxicity occurred; also recorded: no DLTs were observed at any dose level; also recorded: without any DLTs | skin toxicity (GFH018 as a single agent): No special concerns related to skin toxicity were raised | At least one TEAE (Total (N = 50)): 48 (96.0%) n (%) | At least one TEAE (Table S3) (Total (N = 50)): 48 (96.0%) n (%) | At least one TRAE (Total (N = 50)): 43 (86.0%) n (%) | TEAE: ALP increased (Total (N = 50)): 8 (16.0%) n (%) | TEAE: ALT increased (Total (N = 50)): 8 (16.0%) n (%) | TEAE: ALT increased, any grade (Table S3) (Total (N = 50)): 8 (16.0%) n (%) | TEAE: ALT increased, maximal CTCAE grade G1 (Total (N = 50)): 8 (16.0%) n (%) | TEAE: ALT increased, maximal CTCAE grade G2 (Total (N = 50)): 0 n (%) | TEAE: ALT increased, maximal CTCAE grade G3 (Total (N = 50)): 0 n (%) | TEAE: ALT increased, maximal CTCAE grade G4 (Total (N = 50)): 0 n (%) | TEAE: ALT increased, maximal CTCAE grade G5 (Total (N = 50)): 0 n (%) | TEAE: AST increased (Total (N = 50)): 11 (22.0%) n (%) | TEAE: AST increased, any grade (Table S3) (Total (N = 50)): 11 (22.0%) n (%) | TEAE: AST increased, maximal CTCAE grade G1 (Total (N = 50)): 10 (20.0%) n (%) | TEAE: AST increased, maximal CTCAE grade G2 (Total (N = 50)): 1 (2.0%) n (%) | TEAE: AST increased, maximal CTCAE grade G3 (Total (N = 50)): 0 n (%) | TEAE: AST increased, maximal CTCAE grade G4 (Total (N = 50)): 0 n (%) | TEAE: AST increased, maximal CTCAE grade G5 (Total (N = 50)): 0 n (%) | TEAE: Abdominal distention (Total (N = 50)): 7 (14.0%) n (%) | TEAE: Abdominal pain (Total (N = 50)): 9 (18.0%) n (%) | TEAE: Anemia (Total (N = 50)): 17 (34.0%) n (%) | TEAE: Asthenia (Total (N = 50)): 9 (18.0%) n (%) | TEAE: Bilirubin conjugated increased (Total (N = 50)): 8 (16.0%) n (%) | TEAE: Blood albumin decreased (Total (N = 50)): 6 (12.0%) n (%) | TEAE: Blood bilirubin increased (Total (N = 50)): 5 (10.0%) n (%) | TEAE: C-reactive protein increased (Total (N = 50)): 5 (10.0%) n (%) | TEAE: C-reactive protein increased, any grade (Table S3) (Total (N = 50)): 5 (10.0%) n (%) | TEAE: C-reactive protein increased, maximal CTCAE grade G1 (Total (N = 50)): 5 (10.0%) n (%) | TEAE: C-reactive protein increased, maximal CTCAE grade G2 (Total (N = 50)): 0 n (%) | TEAE: C-reactive protein increased, maximal CTCAE grade G3 (Total (N = 50)): 0 n (%) | TEAE: C-reactive protein increased, maximal CTCAE grade G4 (Total (N = 50)): 0 n (%) | TEAE: C-reactive protein increased, maximal CTCAE grade G5 (Total (N = 50)): 0 n (%) | TEAE: Constipation (Total (N = 50)): 8 (16.0%) n (%) | TEAE: Decreased appetite (Total (N = 50)): 6 (12.0%) n (%) | TEAE: Decreased appetite, any grade (Table S3) (Total (N = 50)): 6 (12.0%) n (%) | TEAE: Decreased appetite, maximal CTCAE grade G1 (Total (N = 50)): 4 (8.0%) n (%) | TEAE: Decreased appetite, maximal CTCAE grade G2 (Total (N = 50)): 2 (4.0%) n (%) | TEAE: Decreased appetite, maximal CTCAE grade G3 (Total (N = 50)): 0 n (%) | TEAE: Decreased appetite, maximal CTCAE grade G4 (Total (N = 50)): 0 n (%) | TEAE: Decreased appetite, maximal CTCAE grade G5 (Total (N = 50)): 0 n (%) | TEAE: GGT increased (Total (N = 50)): 10 (20.0%) n (%) | TEAE: GGT increased, any grade (Table S3) (Total (N = 50)): 10 (20.0%) n (%) | TEAE: GGT increased, maximal CTCAE grade G1 (Total (N = 50)): 8 (16.0%) n (%) | TEAE: GGT increased, maximal CTCAE grade G2 (Total (N = 50)): 2 (4.0%) n (%) | TEAE: GGT increased, maximal CTCAE grade G3 (Total (N = 50)): 0 n (%) | TEAE: GGT increased, maximal CTCAE grade G4 (Total (N = 50)): 0 n (%) | TEAE: GGT increased, maximal CTCAE grade G5 (Total (N = 50)): 0 n (%) | TEAE: Hypoalbuminemia (Total (N = 50)): 7 (14.0%) n (%) | TEAE: LDH increased (Total (N = 50)): 8 (16.0%) n (%) | TEAE: LDH increased, any grade (Table S3) (Total (N = 50)): 8 (16.0%) n (%) | TEAE: LDH increased, maximal CTCAE grade G1 (Total (N = 50)): 8 (16.0%) n (%) | TEAE: LDH increased, maximal CTCAE grade G2 (Total (N = 50)): 0 n (%) | TEAE: LDH increased, maximal CTCAE grade G3 (Total (N = 50)): 0 n (%) | TEAE: LDH increased, maximal CTCAE grade G4 (Total (N = 50)): 0 n (%) | TEAE: LDH increased, maximal CTCAE grade G5 (Total (N = 50)): 0 n (%) | TEAE: Lymphocyte count decreased (Total (N = 50)): 12 (24.0%) n (%) | TEAE: Platelet count decreased (Total (N = 50)): 6 (12.0%) n (%) | TEAE: Proteinuria (Total (N = 50)): 11 (22.0%) n (%) | TEAE: Sinus tachycardia (Total (N = 50)): 10 (20.0%) n (%) | TEAE: Urine protein present (Total (N = 50)): 10 (20.0%) n (%) | TEAE: White blood cell count decreased (Total (N = 50)): 7 (14.0%) n (%) | TEAE: White blood cells urine positive (Total (N = 50)): 5 (10.0%) n (%) | TEAE: White blood cells urine positive, any grade (Table S3) (Total (N = 50)): 5 (10.0%) n (%) | TEAE: White blood cells urine positive, maximal CTCAE grade G1 (Total (N = 50)): 5 (10.0%) n (%) | TEAE: White blood cells urine positive, maximal CTCAE grade G2 (Total (N = 50)): 0 n (%) | TEAE: White blood cells urine positive, maximal CTCAE grade G3 (Total (N = 50)): 0 n (%) | TEAE: White blood cells urine positive, maximal CTCAE grade G4 (Total (N = 50)): 0 n (%) | TEAE: White blood cells urine positive, maximal CTCAE grade G5 (Total (N = 50)): 0 n (%) | TRAE: ALP increased (Total (N = 50)): 5 (10.0%) n (%) | TRAE: ALT increased (Total (N = 50)): 6 (12.0%) n (%) | TRAE: AST increased (Total (N = 50)): 9 (18.0%) n (%) | TRAE: Anemia (Total (N = 50)): 7 (14.0%) n (%) | TRAE: GGT increased (Total (N = 50)): 5 (10.0%) n (%) | TRAE: LDH increased (Total (N = 50)): 5 (10.0%) n (%) | TRAE: Lymphocyte count decreased (Total (N = 50)): 6 (12.0%) n (%) | TRAE: Protein urine present (Total (N = 50)): 6 (12.0%) n (%) | TRAE: Proteinuria (Total (N = 50)): 7 (14.0%) n (%) | Treatment-emergent Proteinuria (grouped PTs), G1 (Total (N = 50)): 12 (24.0) n (%) | Treatment-emergent Proteinuria (grouped PTs), G2 (Total (N = 50)): 8 (16.0) n (%) | Treatment-emergent Proteinuria (grouped PTs), G3 (Total (N = 50)): 1 (2.0) n (%) | Treatment-emergent Proteinuria (grouped PTs: proteinuria and urine protein present), any grade (Total (N = 50)): 21 (42.0) n (%) | TRAE ALP increased, all G (all 50 patients): 10.0% | TRAE ALP increased, ≥G3 (all 50 patients): 0% | TRAE ALT increased, all G (all 50 patients): 12% | TRAE ALT increased, ≥G3 (all 50 patients): 0% | TRAE AST increased, all G (all 50 patients): 18% | TRAE AST increased, ≥G3 (all 50 patients): 0% | TRAE GGT increased, all G (all 50 patients): 10.0% | TRAE GGT increased, ≥G3 (all 50 patients): 0% | TRAE LDH increased, all G (all 50 patients): 10.0% | TRAE LDH increased, ≥G3 (all 50 patients): 0% | TRAE anemia, all G (all 50 patients): 14% | TRAE anemia, ≥G3 (all 50 patients): 2% | TRAE lymphocyte count decreased, all G (all 50 patients): 12.0% | TRAE lymphocyte count decreased, ≥G3 (all 50 patients): 2.0% | TRAE proteinuria, all G (all 50 patients): 14% | TRAE proteinuria, ≥G3 (all 50 patients): 2% | TRAE urine protein present, all G (all 50 patients): 12.0% | TRAE urine protein present, ≥G3 (all 50 patients): 0% | bleeding events (all 50 patients): No significant cardiotoxicity or bleeding was observed; also recorded: No bleeding events occurred | cardiotoxicity (all 50 patients): No significant cardiotoxicity or bleeding was observed; also recorded: No significant cardiotoxicity was observed; also recorded: No significant cardiovascular toxicities were observed | changes in serum creatinine levels or estimated glomerular filtration rate (all 50 patients): no clinically significant changes | grade 4 or 5 TRAEs (all 50 patients): No grade 4 or 5 TRAEs were observed | patients with grade 3 proteinuria (all 50 patients): one | patients with at least one TEAE (all 50 patients, 5-85 mg): ~96.0% | patients with at least one TRAE (all 50 patients, 5-85 mg): 86.0% | patients with at least one ≥ G3 TEAE (all 50 patients, 5-85 mg): 26.0% | patients with ≥ G3 TRAEs (all 50 patients, 5-85 mg): 6% | deaths (all 50 patients, all judged unrelated to GFH018): Six | patients with at least one serious AE (SAE) [2]: nine | treatment discontinuation due to AEs (bilirubin increased, peripheral edema) [2]: two | severity of AESIs (all 50 patients, without clinical symptoms or signs): mild (Grade 1) | maximum tolerated dose (MTD) (eight dose levels up to 85 mg): not reached
